# How the values were obtained:
# Format in all cases: cell-based, mouse
# [1] = system: HIF-1α; assay: HIF-1α and GLUT1 protein levels in isolated pancreatic islets (immunoblotting); conditions: islets treated with GKA50 alone, 20 hours
# [2] = system: isolated pancreatic islets; assay: Static batch incubation (insulin secretion) of isolated islets
# [3] = system: isolated pancreatic islets; assay: Measurements of cytoplasmic free Ca2+-concentration in islets
# [4] = system: HIF-1α target genes; assay: Gene expression of HIF-1α target genes in isolated islets (RT-qPCR)
# [5] = system: isolated pancreatic islets; assay: Cellular hypoxia in isolated islets (pimonidazole adducts)
# Description: For experiments using the hypoxic marker pimonidazole, islets were cultured overnight in RPMI 1640 with 11 mM glucose and fasted for 1 hour in RPMI 1640 with 5.5 mM glucose. Subsequently islets were moved to medium containing 5.5 mM, 11 mM or 22 mM glucose, either with or without the glucokinase activator 10 μM of the glucokinase activator GKA50 (Sigma), 50 μM nifedipine (Sigma) or 100 μM diaxozide (Sigma) as indicated (FIGS. 1A and B). Islets were cultured during 8 hours before lysis. During the last 2 hours pimonidazole (Hypoxyprobe, HPI, Inc) was added to the medium. The hypoxic sample were cultured under 8% O2 during the last 2 hours before the lysis.
# Islets were sonicated in RIPA buffer (50 mM Tris-HCl pH7.4, 150 mM NaCl, 1% NP-40, 0.5% Na deoxycholate, 0.1% SDS, 1 mM EDTA, protease inhibitor mix (Complete-Mini, Roche), 0.5 mM phenylmethylsulfonyl fluoride (PMSF) and 0.5 mM dithiothreitol). Lysates were cleared by centrifugation for 30 min at 14.000 r.p.m., and proteins were separated by SDS-PAGE and blotted onto nitrocellulose membranes. […]
# [6] = islets treated with GKA50 alone, 20 hours
SMILES,HIF-1α stabilization and GLUT1 protein levels [1],"basal insulin secretion ([2]; 3.3 mM glucose, after 20 hours treatment and 2 hours fasting)","insulin release at high glucose concentration ([2]; 16.7 mM glucose, after 20 hours treatment)",secretory index ([2]; GKA50-treated islets in absence (1.2) or presence (3.4) of the HIF-1α inhibitor),insulin content ([2]; islets treated with GKA50 with or without PX-478),speed of [Ca2+]i response to glucose ([3]; 20 μM GKA50 with or without 50 μM PX-478),"basal [Ca2+]i oscillations ([3]; 3 mM glucose, after 20 hours 20 μM GKA50 with or without 50 μM PX-478 and 2 hours fasting)","Gck mRNA level ([4]; islets treated with GKA50, compared to untreated islets)","gene expression of Glut1, Igfbp3, Hk2, Pgk1 and Pdk1 [4, 6]","mRNA expression of Ldha and Bnip3 [4, 6]","formation of pimonidazole adducts (cellular hypoxia) ([5]; isolated islets, 8 hours, 10 μM GKA50)",levels of pimonidazole adducts ([5]; islets treated with GKA50 in the presence of 50 μM nifedipine or 100 μM diaxozide)
COC[C@H](C)Oc1cc(O[C@@H](C)Cc2ccccc2)cc(C(=O)Nc2ccc(C(=O)O)cn2)c1 [GKA50],led to HIF-1α stabilization and increased GLUT1 protein levels,dose response-dependent increase in basal insulin secretion,without impacting on insulin release at high glucose concentration,1.2 fold,no impact on insulin content,faster response to glucose,displayed [Ca^2+]i oscillations already under basal low glucose concentration,reduced,Induction,not induced,increase in the formation of pimonidazole adducts,–
CC1=Nc2ccc(Cl)cc2S(=O)(=O)N1 [diaxozide],–,–,–,–,–,–,–,–,–,–,–,no decrease in levels of pimonidazole adducts
